Entries after “also recorded” stand apart in the source; their conditions may differ. Blank lines part the entries; values can stand above or below the compound they belong to.
Key:
[1] = Resistance of glasses to devitrification on exposure to relative humidity; assay type: physicochemical
Experimental: Glasses were made by evaporating DCM on a hotplate set at 65° C. from a 25% solutions of TOAC (50% solutions often deposited crystals in the pipette tip). Drying was carried out for 2 hr to be certain of complete dryness. Uniform glasses were produced by using an Eppendorf-type pipette to deliver 100 μl to a slide recently placed on the hotplate and then removing about 50 μl by using the clear/expel volume of the pipette.
XPDO was therefore incorporated into a TOAC glass by dissolving both crystalline TOAC and XPDO in DCM and evaporating the solvent at 70° C. on a hotplate. XPDO was used in proportions of 10% and 20% of total solids in the final TOAC glass.
(§1) The resulting glasses were tested for their utility as controlled release matrices in two ways. First, they were assessed for their ability to resist devitrification on exposure to high RH at RT. Second, they were immersed in water or phosphate-buffered saline (PBS) to study their solubility and rate of erosion by surface recrystallization.

[2] = Devitrification / recrystallization of glasses immersed in liquid water; assay type: physicochemical
Experimental: However, when immersed in liquid water, the surface of the glass slowly recrystallized so that microscopic pyramidal crystals of TOAC could be seen under an inverted microscope within 15-30 min of addition of water. Crystallization was slowly progressive and within another few minutes small clusters of the typical needle shaped crystals of XPDO appeared. Since neither the needle shaped XPDO crystals nor the pyramidal TOAC crystals were adherent to the underlying glass, they were washed away readily to reveal a fresh glass surface for further slow dissolution. The complete exclusion of XPDO from the TOAC crystals ensured that this molecule, previously incorporated in the glassy TOAC matrix, was now released into the liquid phase.
as §1
The 10% α-GPAC and 10% TOPR in TOAC glasses and the 50:50 molar ratio TOAC:α-GPAC glass were also immersed in water to examine their rate of devitrification in liquid water rather than humid air.

[3] = Glass transition temperature (Tg) by thermal analysis (DSC); assay type: physicochemical
Excerpt: In general, the tendency to crystallize, from a cooling melt or with reducing solvent, is low. Both devitrification and the fluidity of the melt at temperatures close to Tg, can be controlled by modifiers such as other derivative sugars and certain organic actives. The following two tables, generated as described in the Examples presented below, provide Tg and melting temperature data for a variety of HDCs suitable for use, either alone, or in a composite glass, herein.
Dissolution of synthetic corticosteroid XPDO (described below) into a TOAC melt and quenching to form the vitreous solid dose delivery system was achieved. By looking at the release of MB9 into aqueous solution, these experiments tested the compatibility of the steroid within the glass, subsequent recovery of the steroid and studied the effect that XPDO has on the properties of the delivery system formed looking at the release of MB9 into aqueous solution. TOAC (3.21 g) was pre-melted at 150° C., before being quenched to glass. The glass was finely ground with XPDO (0.15 g) before being remelted. The clear melt was again quenched to yield the composite HDC/active glass. Thermal analysis was carried out on a Rheometric Scientific Differential Scanning Calorimeter (DSC) at a heating rate of 10°/min under a nitrogen atmosphere. The following samples were prepared:
Studies were performed using the synthetic corticosteroid XPDO dissolved in DCM. The solution was spray dried in a Buchi B-191 spray drier, using an inlet temperature of 40° C. […] XPDO was incorporated at 20 wt %. The powder was completely amorphous as confirmed by thermal analysis (Tg=46° C.).

[4] = Stability, recovery and release of XPDO from HDC glass (HPLC); assay type: physicochemical
Experimental: Release characteristics of the vitreous HDC solid dose delivery systems were studied by monitoring the release of MB9 from TOAC/XPDO glasses as shown in FIG. 15. For analysis of stability of active in the vitreous HDC solid dose delivery systems, XPDO was recovered from the samples by dissolving the glass in acetonitrile and analyzing by HPLC. There was full recovery of the guest substance even after storage at 45° C. for 4 weeks.
For analysis XPDO was extracted from the spray-dried powder by dissolving the powder in acetonitrile and then diluting the acetonitrile with sodium phosphate buffer prior to analysis by HPLC. Samples were set up to test stability of XPDO in the spray dried formulations at 45° C. and stored over saturated Zinc sulphate (RH 80-85%).
For release into sodium phosphate buffer, 0.0868 g of the spray dried powder was shaken in 10 mls of the buffer for 1 minute. The suspension was then filtered through a 0.2 μm filter. […] Bioavailability of the steroid from the delivery system was tested by immersion in an aqueous solution for a short time. Stability of the steroid in the spray-dried formulation was tested at high humidity and 45° C. (both factors are important if the application as an inhalable powder is to be successful). The results indicated a resistance to high humidity, stability in the glass and ready bioavailability in vitro tests.

[5] = Encapsulation of organic substances in α-D-glucose pentaacetate glass; assay type: physicochemical
Experimental: Excellent recoveries were obtained in the encapsulation of several organic substances in the glasses. Glass discs of α-D-Glucose pentaacetate containing 2% w/w of the materials listed in Table 4 were formed by melting and quenching and then ground. Photochrome II is 5-chloro-1,3-dihydro-1,3,3-trimethyl spiro[2H-indole-2,3′-[3H]-napth[2,1-b] [1,4]-oxazine. The encapsulated materials were extracted by the suitable solvent such as methanol or water.
Pesticide-like Oxadiazon was dissolved easily in the melt of this glass at about 15% w/w without problem.

[6] = Controlled release of encapsulated MB9 dye from HDC glass beads/discs; assay type: physicochemical
Experimental: In the following experiments, the delivery system was preformulated, whether as a single material, or as a mixed composition. This was carried out by intimately grinding the component HDCs together, followed by careful, controlled melting in a furnace, between 120-140° C. and with normal atmosphere to form melts. The melts were quenched to glass by pouring over a brass block. This glass was then finely ground.
MB9 dye (1 or 5 wt %) was mixed with the ground glass prior to re-melting at 140° C. The melt was quenched to form small glass beads (2.5 mm diameter) which were used in controlled release experiments.
Controlled release of encapsulated dye was monitored by suspending three such beads in 25 or 50 ml of deionized water or PBS solution at ambient temperatures (27-30° C.) or at 37° C., as indicated. The media were undisturbed, except for periodic stirring and were replaced at set intervals with fresh media (generally at 72 hr intervals). Both single HDC glasses and composite HDC glasses were formed. […] The use of other HDCs as glass modifiers in the composite HDC formulations enable the tailoring of the glasses formed to yield the release characteristics desired.
In FIG. 8, the results were obtained from TOAC glass discs (6 mm×2.5 mm) with MB9 dye evenly dispersed therein at 2 wt %. Release was controlled at 25° C. with gentle stirring and media changes at regular intervals. Note the linear release of MB9 dye over a 55 day period. The results presented in FIG. 8 indicate that a pure HDC vitreous delivery vehicle system gives zero-order release rates of guest substances. The results presented in FIGS. 9-14 show variation on release rates by changing the ratios of different HDCs in the delivery systems, changing the carbohydrate backbone length and by changing the nature of the derivative on the carbohydrate backbone. In each instance it is clear that the HDC delivery systems allow a wide range of release rates that can be tailored to the guest substance and the delivery thereof.

[7] = tested on: African Green monkey kidney-derived cell line Vero; experiment: In vitro toxicity of TOAC in Vero cell culture; assay type: cell-based; details: saturated solution in 10-fold serial dilution or powder added to medium; week of culture
Experimental: A saturated solution of TOAC in deionised distilled water (0.42 g in 20 mls) was tested for toxicity in vitro using the African Green monkey kidney-derived cell line Vero, in either a 10-fold serial dilution or by adding the TOAC powder directly to the tissue culture medium.

change in glass structure such as recrystallization ([1]; guest in TOAC glass from DCM, stored at RH of 75%, 81%, 90% and 95% for 4 weeks): no change in glass structure
time to release of guest substance when added to liquid water ([2]; 10% (w/v) guest in HDC glass): 5 to 10 min
time to surface recrystallization after immersion in water ([2]; glass immersed in liquid water): 15 to 30 min
Tg ([3]; spray dried amorphous powder, XPDO incorporated at 20 wt %): 46 °C
degradation on HPLC analysis ([4]; spray dried glass powder, 4 weeks storage at 45° C. and 85% RH): No evidence of any degradation
Structure (SMILES): CCCC1OC2CC3C4CC(F)C5=CC(=O)CCC5(C)C4(F)C(O)CC3(C)C2(C(=O)CO)O1 (stereo not drawn) [XPDO, 6α,9α-difluoro-11β,21-dihydroxy-16α,17α-propyl methylene dioxy-4-pregnene-3,20-dione]
HDC glass stability at high relative humidity ([1]; 10% (w/v) guest in HDC (TOAC) glass, RH up to 95%, room temperature): stable when exposed to relative humidities of up to 95% at room temperature for over a month
release into sodium phosphate buffer ([4]; spray dried powder shaken in buffer for 1 minute, filtered, HPLC): effectively being released into aqueous solution

melting point: 100 to 104 °C
Tg/° C. ([3]; single HDC glasses (Table 1)): −6 °C
Structure (SMILES): CC(=O)OC[C@H](OC(C)=O)[C@@H](OC(C)=O)[C@H](OC(C)=O)[C@@H](COC(C)=O)OC(C)=O [SHAC, sorbitol hexaacetate]

Structure (SMILES): CC(C)Oc1cc(-n2nc(C(C)(C)C)oc2=O)c(Cl)cc1Cl [Oxadiazon]
amount dissolved in the melt of the glass [5]: about 15 % w/w

recrystallization of glass on storage ([1]; TOAC glass from DCM on slides, room temperature, 50-60% relative humidity): gradually recrystallized over 1 month
Initial Form ([1]; mixed HDC glasses (Table 6)): Glass
After RH 24 hr ([1]; mixed HDC glasses exposed to high RH (75% to 95%) at RT, 24 hr): Cryst + + + +
Tg ([3]; glass quenched from melt, DSC, heating rate 10°/min, nitrogen): Tg = 50.1 °C
Tg/° C. ([3]; single HDC glasses (Table 1)): 50 °C
Tg/° C. ([3]; single and composite HDC glasses, mole ratios of HDCs in glass (Table 2)): 50 °C
period of linear release of MB9 dye ([6]; TOAC glass discs 6 mm×2.5 mm, MB9 2 wt %, PBS, 25° C., FIG. 8): 55 days
MB9 release characteristics ([6]; TOAC glass, MB9 dye): zero-order release characteristics
Structure (SMILES): CC(=O)OCC1OC(OC2OC(COC(C)=O)C(OC(C)=O)C(OC(C)=O)C2OC(C)=O)C(OC(C)=O)C(OC(C)=O)C1OC(C)=O (stereo not drawn) [TOAC, trehalose octaacetate]
devitrification at RH from 75% to 95% ([1]; thin glass films and quenched disks, RT, overnight exposure): very susceptible to devitrification at high RH; also recorded: crystallized at all RHs from 75% to 95%
cell division [7]: normal
toxic effects [7]: No toxic effects were observed

Source: patent publication US6586006B2, “Solid delivery systems for controlled release of molecules incorporated therein and methods of making same” (Elan Drug Delivery Limited, priority 1994, dated 2003)
